# Values quoted from earlier work in patent publication US20030199492A1, “Combination therapy” (priority 1997, published 2003).
# Experiments:
# [1] = tested on: smooth muscle cell migration
# [2] = tested on: calcium channel
compound,measurement,setting,value
"CCOC(=O)C1=C(COCCN)NC(C)=C(C(=O)OC)C1c1ccccc1Cl (single isomer, unassigned) [R(+) isomer, amlodipine]",inhibition of smooth muscle cell migration,[1],potent inhibitor of smooth muscle cell migration
same,calcium channel blocking activity,[2],little or no calcium channel blocking activity
